Test [1] is described as follows: age-related ROS inhibitors in S. cerevisiae – DHE fluorescence, primary hits, dose response (AID 449753). The settings on record: S. cerevisiae aged culture, superoxide DHE fluorescence, 7 d; at 30 µM (top of the series).
Test [2] concerns S. cerevisiae aged culture, superoxide DHE fluorescence, 7 d. The test is described as above.

This note sets out measurements from PubChem BioAssay AID449753 (NMMLSC, 2010).

The term pEC50 denotes the negative decadic logarithm of the EC50, by convention in mol/L. Usually EC50 stands for the concentration that produces a half-maximal response.

pEC50: −log10 of the molar value. Calls of active or inactive are those of the source.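 How the source made its calls: active means EC50 under 30000 nM from a falling dose curve whose fit quality and slope passed set checks; inactive means the rest.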

With `O=C(O)c1cnc2ccccc2n1`, in test [1], the percent response (superoxide), lower = inhibition was 114 (inactive). Regarding `C[C@]12CCC3C(CC[C@H]4C[C@H](O)CC[C@]34C)C1CCC2=O` (stereo partly specified), in test [2], the pEC50 is 6.20.

For the compound `O=C(/C=C/c1cccs1)NC(=S)NNC(=O)Cc1cccs1`, the percent response (superoxide), lower = inhibition in test [1] is 121 (inactive). Still for that read-out and setting: the result for `N#CCc1nn(-c2ccccc2)c2ncnc(N)c12` reads 96.7 (inactive); that for `C=CCOn1c(=O)c(-c2cccs2)[n+]([O-])c2ccccc21`, 104 (inactive).

For `CC(=O)O[C@H]1CCC2C3CC[C@H]4[C@@H](O)[C@H](O)CC[C@]4(C)C3CC[C@@]21C` (stereo partly specified), the percent response (superoxide), lower = inhibition in test [1] was 90.2 (inactive). As for `C[C@]12CCC3C(CC[C@H]4C[C@H](O)CC[C@]34C)C1C[C@@H](CCCCl)[C@@H]2O` (stereo partly specified), the pEC50 in test [2] was 6.30. Still for that read-out and setting: the result for `Nc1cc2nc3ccccc3nc2cc1N` reads 5.73.

Regarding `O=C(/C=C/c1ccccc1)NC(=S)NNC(=O)Cc1cccs1`, the percent response (superoxide), lower = inhibition in test [1] is 83 (inactive). For the compound `COc1ccc2nc3ccccc3nc2c1N`, in test [2], the pEC50 is 6.18. Regarding `CC(C)(C)n1nc(-c2ccc(Cl)cc2)c2c(N)ncnc21`, the pEC50 in test [2] was 5.32.

As for `CCN(CC)C(=O)CSc1nnc(-c2cccc(OC)c2)o1`, the percent response (superoxide), lower = inhibition in test [1] was 92.6 (inactive). Regarding `C[C@]12CCC3C(CC[C@H]4C[C@@H](O)CC[C@]34C)C1CC[C@@H]2OC(=O)[C@H](N)CCCCN` (stereo partly specified), the percent response (superoxide), lower = inhibition in test [1] was 71.9 (inactive). As for `O=C1c2c(O)ccc(O)c2C(=O)c2c(NCCNCCO)ccc(NCCNCCO)c21`, the pEC50 in test [2] was 5.28. Take `CCc1nc(NC(C)(C)C)c2cnn(-c3ccccc3)c2n1`: the percent response (superoxide), lower = inhibition in test [1] is 88 (inactive). As for `CC(C)OC(=O)c1ccc2nc3ccccc3nc2c1`, the pEC50 in test [2] was 4.78. Consider `COc1ccc2nc3ccccc3nc2c1NC(=O)c1ccccc1Cl`, for which the percent response (superoxide), lower = inhibition in test [1] is 56.6 (inactive). The same measure, in the same setting: the result for `CC(=O)[C@@]1(O)CCC2C3CC[C@H]4C[C@@H](O)CC[C@]4(C)C3CC[C@@]21C` (stereo partly specified) reads 129 (inactive). As for `CNC(=O)c1cccc2nc3ccccc3nc12`, the pEC50 in test [2] is 4.84. As for `CC(C)OC(=O)CSc1nnc(-c2ccc(Cl)cc2Cl)o1`, the percent response (superoxide), lower = inhibition in test [1] is 112 (inactive). For `O=C(Nc1ccc2nc3ccccc3nc2c1)c1ccccc1`, in test [1], the percent response (superoxide), lower = inhibition was 57.7 (inactive). On to `CNc1ccc2nc3ccccc3[n+](C)c2c1`, for which the pEC50 in test [2] was 5.00. Still for that read-out and setting: the result for `c1ccc2[nH]c3cc4ncnc4cc3nc2c1` reads 7.40; that for `CC(C)(C)Nc1ncnc2c1cnn2-c1ccccc1`, 6.33; that for `COc1ccc2c3c(cccc13)N(C)N=C2C`, 5.10. The same measure, in the same setting: the result for `[O-][n+]1c2ccccc2[n+]([O-])c2cc(O)ccc21` reads 6.03; that for `COc1ccc2c(c1)c1nnc(SC)nc1n2C`, 5.49.

With `Cc1ccc(-c2nn(C(C)(C)C)c3ncnc(N)c23)cc1`, in test [2], the pEC50 was 5.52. On to `O=C(Nc1ccc2nc3ccccc3nc2c1)c1ccc(Br)cc1`, for which the percent response (superoxide), lower = inhibition in test [1] is 105 (inactive). With `OCC[n+]1c2ccccc2nc2ccc(N3CCOCC3)cc21`, the pEC50 in test [2] was 5.42.

`O=c1[nH]c(O)c(C=Nc2ccc(F)c(Cl)c2)c(=O)[nH]1`: the percent response (superoxide), lower = inhibition in test [1] is 107 (inactive). The same measure, in the same setting: the result for `O=C(Nc1cccc(Cl)c1)Nc1ccc2nccnc2c1` reads 87.1 (inactive); that for `CN(C)CCNc1ncnc2c1cnn2-c1ccc(Cl)cc1`, 99.2 (inactive); that for `O=C(OCc1c(F)cccc1Cl)c1cnc2ccccc2n1`, 117 (inactive).

As for `c1ccc2nc3ccccc3nc2c1`, the pEC50 in test [2] was 6.36. Still for that read-out and setting: with `C=CCSc1nnc(-c2ccc([N+](=O)[O-])cc2)o1` the figure was 5.54; with `FC(F)(F)c1nc2cc3nc4ccccc4[nH]c3cc2n1`, 6.68; with `COC(=O)c1cccc2nc3c(C(C)O)cccc3nc12` (stereo unspecified), 5.89. With `Cn1c(O)c(C(=Nc2ccc(F)cc2)c2ccccc2Cl)c(=O)n(C)c1=O`, the EC50 in test [2] was 3140 nM (inactive). For `N#CC(c1nc2ccccc2nc1N1CCCC1)S(=O)(=O)c1ccccc1` (stereo unspecified), in test [1], the percent response (superoxide), lower = inhibition is 98.7 (inactive). Same read-out and setting: with `C#C[C@]1(O)[C@H](O)CC2C3CC[C@H]4C[C@@H](O)CC[C@]4(C)C3CC[C@@]21C` (stereo partly specified) the figure was 87.4 (inactive); with `C[C@]12CCC3C(CC[C@H]4C[C@@H](O)CC[C@]34C)[C@H]1CC[C@H]2O` (stereo partly specified), 64.7 (inactive). As to `CC(C)(C)n1nc(-c2ccc(F)cc2)c2c(N)ncnc21`, the pEC50 in test [2] was 5.29. Same read-out and setting: the result for `C#CCSc1nnc(-c2ccc([N+](=O)[O-])cc2)o1` reads 5.33; that for `CCC(=Nc1ccccc1O)C1=C(O)CC(c2ccccc2)CC1=O` (stereo unspecified), 5.79; that for `C=C1C(O)[C@@H]2O[C@]3(CC[C@H](/C=C/C(C)[C@@H]4CC(C)=CC5(O[C@H](C[C@@](C)(O)C(=O)O)CCC5O)O4)O3)CC[C@H]2O[C@@H]1C(O)CC(C)[C@H]1OC2(CCCCO2)CCC1C` (stereo partly specified), 7.00.
